According to US20110245316A1, “PREVENTION OR DELAY OF ONSET OF ORAL MUCOSITIS” (SCICLONE PHARMACEUTICALS, INC., priority 2010, published 2011):
“Also recorded” adds a separate entry of the source.

Test system: oral mucositis in patients receiving chemoradiation for head and neck cancer
Assay: Phase 2 randomized, double-blind, placebo-controlled trial: onset of oral mucositis (WHO OM Scale) in patients receiving CT/RT
Format: in vivo, human
Settings: for gastrostomy tube placement and use / unplanned office and emergency room visits: higher dose (0.1 mg/kg); for severe OM, percent of patients: subcutaneous 0.1 mg/kg (HD)
Text: OM is a painful, debilitating, and costly toxicity of different chemoradiotherapy (CT/RT) regimens used to treat head and neck cancer. This trial is a phase 2, randomized, double-blind, dose-ranging, placebo-controlled three-arm study in patients receiving CT/RT for the treatment of head and neck cancer, to assess the safety and tolerability of γ-D-glutamyl-L-tryptophan (SCV-07) as well as its efficacy in delaying the onset of severe OM as assessed by the WHO Oral Mucositis Scale.
The WHO OM Scale is the standard, validated instrument used in clinical trials to measure OM: Grade 0=none; Grade 1=erythema and soreness, no ulcers; Grade 2=ulcers, able to eat a solid diet; Grade 3=ulcers; requires a liquid diet; Grade 4=ulcers, not able to tolerate a solid or liquid diet, requires IV or tube feeding.
59 eligible patients with recently diagnosed, treatment naïve, pathologically-confirmed, non-metastatic squamous cell carcinoma of the oral cavity, oropharynx, hypopharynx or larynx were enrolled and treated with a concomitant regimen of CT/RT consisting of a continuous course of external beam irradiation (IMRT eligible) with a minimum cumulative dose of 50 Gray (Gy) and cisplatin monotherapy administered using standard weekly or tri-weekly dosing regimens (80-100 mg/m^2 administered on Days 0, 21 and 42) or weekly (30-40 mg/m^2). At least two ‘at risk’ intraoral sites were included in the radiation fields and received a cumulative RT dose of at least 50 Gy. Subjects were equally randomized to receive either placebo or one of two doses of γ-D-glutamyl-L-tryptophan (0.02 or 0.1 mg/kg) on each radiation day for up to 7 weeks.
Tables 2-7 summarize the statistics for the Full Analysis Set “FAS” (57 subjects), and the completer population (52 subjects), with respect to delay of onset of severe oral mucositis. Also see FIGS. 1 and 2.
SCV-07 efficacy, dosing and scheduling parameters were assessed in hamster models of acute, fractionated and concomitant chemoradiation (CRT). […] A multicenter, prospective, blinded, randomized trial evaluated SCV-07's ability to alter OM in CRT-treated HNC patients (n=57). Cytokine and gene microarray analyses were performed for samples obtained before and on the last radiation day.

[1] = 0.10 mg/kg, Completer Population
[2] = 0.10 mg/kg, Completer Population, at 30-<35 Gy
[3] = 0.10 mg/kg, Completer Population, at 35-<40 Gy
[4] = 0.10 mg/kg, Completer Population, at 40-<45 Gy
[5] = 0.10 mg/kg, Completer Population, at 45-<50 Gy
[6] = 0.10 mg/kg, Completer Population, at 50-<55 Gy
[7] = 0.10 mg/kg, Completer Population, at 55-<60 Gy
[8] = 0.10 mg/kg, Completer Population, at 65-<70 Gy
[9] = 0.10 mg/kg, Completer Population, at ≧70 Gy
[10] = listed as γ-D-glutamyl-L-tryptophan, 0.1 mg/kg

N[C@H](CCC(=O)N[C@@H](Cc1c[nH]c2ccccc12)C(=O)O)C(=O)O [SCV-07, γ-D-glutamyl-L-tryptophan]
Cumulative Dose of RT (Gy) at Initial Onset of Ulcerative OM, Median [1]: 26 Gy | Cumulative Dose of RT (Gy) at Initial Onset of Ulcerative OM, Min [1]: 8 Gy | Cumulative Dose of Radiation (Gy) Prior to Initial Occurrence of Severe OM (Delay to Onset of Severe OM), K-M Estimate, Mean (SE) [1]: 56 (3.8) Gy | Cumulative Dose of Radiation (Gy) Prior to Initial Occurrence of Severe OM, K-M Estimate, Median (95% CI) [1]: 57 (51, NA) Gy | Cumulative Dose of Radiation (Gy) Prior to Initial Occurrence of Ulcerative OM (Delay to Onset of Ulcerative OM), K-M Estimate, Mean (SE) [1]: 30 (3.7) Gy | Cumulative Dose of Radiation (Gy) Prior to Initial Occurrence of Ulcerative OM, K-M Estimate, 25%-75% [1]: 19-46 Gy | Cumulative Dose of Radiation (Gy) Prior to Initial Occurrence of Ulcerative OM, K-M Estimate, Median (95% CI) [1]: 26 (19, 41) Gy | Time (Days) to Initial Occurrence of Sever OM, K-M Estimate, Mean (SE) [1]: 38 (2.5) Days | Time (Days) to Initial Occurrence of Sever OM, K-M Estimate, Median (95% CI) [1]: 43 (33, NA) Days | Time (Days) to Initial Occurrence of Ulcerative OM, K-M Estimate, 25%-7% [1]: 12 to 32 days | Time (Days) to Initial Occurrence of Ulcerative OM, K-M Estimate, Mean (SE) [1]: 20 (2.7) Days | Time (Days) to Initial Occurrence of Ulcerative OM, K-M Estimate, Median (95% CI) [1]: 16 (13, 31) Days | delay to onset of ulcerative OM (WHO score >1) as a function of cumulative radiation dose (0.10 mg/kg, Completer Population, FIG. 3): showed a delay to onset of OM | Cum. Percent of Subjects with Ulcerative OM (WHO > 1) (0.10 mg/kg, Completer Population, at 5-<10 Gy): 6% (1%, 37%) | Cum. Percent of Subjects with Ulcerative OM (WHO > 1) (0.10 mg/kg, Completer Population, at 10-<15 Gy): 6% (1%, 37%) | Cum. Percent of Subjects with Ulcerative OM (WHO > 1) (0.10 mg/kg, Completer Population, at 15-<20 Gy): 38% (19%, 65%) | Cum. Percent of Subjects with Ulcerative OM (WHO > 1) (0.10 mg/kg, Completer Population, at 20-<25 Gy): 50% (29%, 75%) | Cum. Percent of Subjects with Ulcerative OM (WHO > 1) (0.10 mg/kg, Completer Population, at 25-<30 Gy): 63% (40%, 85%) | Cum. Percent of Subjects with Severe OM (WHO > 2) [2]: 13% (3%, 41%) | Cum. Percent of Subjects with Ulcerative OM (WHO > 1) [2]: 69% (46%, 89%) | Cum. Percent of Subjects with Severe OM (WHO > 2) [3]: 13% (3%, 41%) | Cum. Percent of Subjects with Ulcerative OM (WHO > 1) [3]: 69% (46%, 89%) | Cum. Percent of Subjects with Severe OM (WHO > 2) [4]: 19% (6%, 48%) | Cum. Percent of Subjects with Ulcerative OM (WHO > 1) [4]: 75% (53%, 92%) | Cum. Percent of Subjects with Severe OM (WHO > 2) [5]: 25% (10%, 54%) | Cum. Percent of Subjects with Ulcerative OM (WHO > 1) [5]: 75% (53%, 92%) | Cum. Percent of Subjects with Severe OM (WHO > 2) [6]: 38% (19%, 65%) | Cum. Percent of Subjects with Ulcerative OM (WHO > 1) [6]: 94% (75%, 100%) | Cum. Percent of Subjects with Severe OM (WHO > 2) [7]: 56% (34%, 80%) | Cum. Percent of Subjects with Ulcerative OM (WHO > 1) [7]: 94% (75%, 100%) | Cum. Percent of Subjects with Ulcerative OM (WHO > 1) (0.10 mg/kg, Completer Population, at 60-<65 Gy): 94% (75%, 100%) | Cum. Percent of Subjects with Severe OM (WHO > 2) (0.10 mg/kg, Completer Population, at 60->65 Gy): 64% (41%, 86%) | Cum. Percent of Subjects with Severe OM (WHO > 2) [8]: 73% (48%, 92%) | Cum. Percent of Subjects with Ulcerative OM (WHO > 1) [8]: 94% (75%, 100%) | Cum. Percent of Subjects with Ulcerative OM (WHO > 1) (0.10 mg/kg, Completer Population, at <5 Gy): 0% (0%, 0%) | Cum. Percent of Subjects with Severe OM (WHO > 2) (0.10 mg/kg, Completer Population, at <30 Gy): 6% (1%, 37%) | Cum. Percent of Subjects with Severe OM (WHO > 2) [9]: 73% (48%, 92%) | Cum. Percent of Subjects with Ulcerative OM (WHO > 1) [9]: 94% (75%, 100%) | Cumulative Dose of RT (Gy) at Initial Onset of Severe OM, Max (0.10 mg/kg, FAS population): 72 Gy | Cumulative Dose of RT (Gy) at Initial Onset of Severe OM, Mean (SD) (0.10 mg/kg, FAS population): 54 (15.6) Gy | Cumulative Dose of RT (Gy) at Initial Onset of Severe OM, Median (0.10 mg/kg, FAS population): 56 Gy | Cumulative Dose of RT (Gy) at Initial Onset of Severe OM, Min (0.10 mg/kg, FAS population): 20 Gy | Cumulative Dose of Radiation (Gy) Prior to Initial Occurrence of Severe OM (Delay to Onset of Severe OM), K-M Estimate, Mean (SE) (0.10 mg/kg, FAS population): 54 (3.9) Gy | Cumulative Dose of Radiation (Gy) Prior to Initial Occurrence of Severe OM, K-M Estimate, Median (95% CI) (0.10 mg/kg, FAS population): 56 (46, 70) Gy | Time (Days) to Initial Occurrence of Severe OM, K-M Estimate, Mean (SE) (0.10 mg/kg, FAS population): 37 (2.7) Days | Time (Days) to Initial Occurrence of Severe OM, K-M Estimate, Median (95% CI) (0.10 mg/kg, FAS population): 40 (32, NA) Days | Cum. Percent of Subjects with Severe OM (WHO > 2) (0.10 mg/kg, FAS population, at 30-<35 Gy): 18% (6%, 45%) | Cum. Percent of Subjects with Severe OM (WHO > 2) (0.10 mg/kg, FAS population, at 35-<40 Gy): 18% (6%, 45%) | Cum. Percent of Subjects with Severe OM (WHO > 2) (0.10 mg/kg, FAS population, at 40-<45 Gy): 24% (10%, 51%) | Cum. Percent of Subjects with Severe OM (WHO > 2) (0.10 mg/kg, FAS population, at 45-<50 Gy): 29% (13%, 57%) | Cum. Percent of Subjects with Severe OM (WHO > 2) (0.10 mg/kg, FAS population, at 50-<55 Gy): 41% (22%, 67%) | Cum. Percent of Subjects with Severe OM (WHO > 2) (0.10 mg/kg, FAS population, at 55-<60 Gy): 59% (37%, 81%) | Cum. Percent of Subjects with Severe OM (WHO > 2) (0.10 mg/kg, FAS population, at 60-<65 Gy): 66% (44%, 87%) | Cum. Percent of Subjects with Severe OM (WHO > 2) (0.10 mg/kg, FAS population, at 65-<70 Gy): 74% (51%, 93%) | Cum. Percent of Subjects with Severe OM (WHO > 2) (0.10 mg/kg, FAS population, at >30 Gy): 6% (1%, 35%) | Cum. Percent of Subjects with Severe OM (WHO > 2) (0.10 mg/kg, FAS population, at ≧70 Gy): 74% (51%, 93%) | delay to onset of severe OM (WHO score >2) as a function of cumulative radiation dose (0.10 mg/kg, Full Analysis Set, FIG. 1): showed a delay to onset of OM | delay to onset of severe OM (WHO score >2) as a function of cumulative radiation dose (0.10 mg/kg, patients that completed radiation therapy, FIG. 2): showed a delay to onset of OM | treatment breaks (HD (0.1 mg/kg)): fewer | Cox regression analysis of time to UOM initial occurrence, decrease vs. placebo (HD SCV-07 cohort vs. placebo): 52% | Number of Days that Patients used the G-Tube (SCV-07 high dose): 44 days | Percent of Patients with G-Tube Placement (SCV-07 high dose (n = 3/20)): 18% | Number of Days that Patients used the G-Tube (SCV-07 low dose): 57 days | Percent of Patients with G-Tube Placement (SCV-07 low dose (n = 4/20)): 20% | delay to onset of ulcerative OM (WHO scale, grades 2 to 4) (high dose (0.1 mg/kg) vs placebo, 0.1 mg/kg): more pronounced clinical benefit; also recorded: delayed | delay to onset of ulcerative OM (WHO scale, grades 2 to 4) (high dose (0.1 mg/kg) vs placebo, listed as γ-D-glutamyl-L-tryptophan, 0.1 mg/kg): showed a trend towards delay in onset | days of gastrostomy tube use (high dose vs placebo and low dose): fewer days | delay to severe OM (WHO scale, grades 3 and 4), primary endpoint (higher dose (0.1 mg/kg) vs placebo, 0.1 mg/kg): showed a trend towards delay to severe OM; also recorded: delayed severe OM vs. placebo | delay to severe OM (WHO scale, grades 3 and 4), primary endpoint (higher dose (0.1 mg/kg) vs placebo, listed as γ-D-glutamyl-L-tryptophan, 0.1 mg/kg): showed a trend towards delay in onset | gastrostomy tube placement and use (0.1 mg/kg): fewer G-tubes placed | unplanned office and emergency room visits (0.1 mg/kg): fewer | gastrostomy tube placement and use [10]: less reliance on gastrostomy tube placement and use | unplanned office and emergency room visits [10]: fewer unplanned office and emergency room visits | delay to onset of ulcerative OM (WHO scale, grades 2 to 4) (low dose (0.02 mg/kg) vs placebo): appeared similar or slightly better than placebo | delay to severe OM (WHO scale, grades 3 and 4), primary endpoint (low dose (0.02 mg/kg) vs placebo, 0.02 mg/kg): appeared to do worse than placebo and not | placement of a gastrostomy feeding tube (patients receiving SCV-07 vs placebo): less likely to require placement of a gastrostomy feeding tube | severe OM, percent of patients (at 50 Gy, placebo 42%): 29% | severe OM, percent of patients (at ≦40Gy, placebo 32%): 18%
